In PubChem BioAssay (NCI):
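Following 48 hours of exposure in 96-well plates, responses at five concentrations were used to interpolate endpoints linearly. GI50 marks 50% less growth. TGI: total growth inhibition.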

Key:
Experiment in all cases: growth of human tumour cells (NCI), 48 h
HCT-116 colon = test system: HCT-116 colon
MOLT-4 leukemia = test system: MOLT-4 leukemia
HL-60(TB) leukemia = test system: HL-60(TB) leukemia
HCT-15 colon = test system: HCT-15 colon
SNB-75 CNS = test system: SNB-75 CNS
NCI-H23 lung = test system: NCI-H23 lung
HOP-62 NSCLC = test system: HOP-62 NSCLC
T-47D breast = test system: T-47D breast
SK-MEL-28 melanoma = test system: SK-MEL-28 melanoma
RXF 393 renal = test system: RXF 393 renal

| SMILES | GI50 (HCT-116 colon) [µM] | TGI (HCT-116 colon) [µM] | GI50 (MOLT-4 leukemia) [µM] | TGI (MOLT-4 leukemia) [µM] | GI50 (HL-60(TB) leukemia) [µM] | TGI (HL-60(TB) leukemia) [µM] | GI50 (HCT-15 colon) [µM] | TGI (HCT-15 colon) [µM] | GI50 (SNB-75 CNS) [µM] | TGI (SNB-75 CNS) [µM] | GI50 (NCI-H23 lung) [µM] | TGI (NCI-H23 lung) [µM] | GI50 (HOP-62 NSCLC) [µM] | TGI (HOP-62 NSCLC) [µM] | GI50 (T-47D breast) [µM] | TGI (T-47D breast) [µM] | GI50 (SK-MEL-28 melanoma) [µM] | TGI (SK-MEL-28 melanoma) [µM] | GI50 (RXF 393 renal) [µM] | TGI (RXF 393 renal) [µM] |
| --- | --- | --- | --- | --- | --- | --- | --- | --- | --- | --- | --- | --- | --- | --- | --- | --- | --- | --- | --- | --- |
| CC(=O)[CH-]C(C)=O.CC(=O)[CH-]C(C)=O.N=CC=N.[Sn+2] | 1.72 | 3.42 | 2.03 | 7.47 | 2.09 | 15.3 | 2.7 | 7.14 | 3.7 | 13.7 | 3.23 | 10.9 | 19.3 | 33.9 | 1.23 | 2.62 | 1.92 | 4.27 | 1.53 | 3.34 |
| C=CC(=O)Nc1cccc(Nc2nc(Nc3ccc(OCCOC)cc3)ncc2F)c1 | 1.82 | 13.1 | 3.97 | 33.6 | 7.7 | 41.7 | 1.03 | 16.1 | 0.341 | 2.44 | 5.67 | 29.1 | 2.42 | 20.7 | 1.7 | 8.9 | 5.62 | 24.4 | 0.387 | 2.73 |
| COc1ccc(C2C(C#N)=C(N)OC3=C2CCCc2ccc(F)cc23)cc1OC (stereo not given) | 11 | 39.1 | > 38.2 | > 66.9 | 32 | > 100 | 17.8 | 38 | 34.7 | > 84.6 | 22.8 | > 65.9 | 21.5 | 42.3 | 46.1 | 98.3 | 24.5 | > 62.4 | 18.7 | 45.7 |
| O=P(O)(O)C(O)(Cn1ccnc1)P(=O)(O)O | > 53.8 | > 77.9 | > 100 | > 100 | > 71.2 | > 100 | > 100 | > 100 | > 37.4 | > 100 | > 89.7 | > 100 | > 55 | > 100 | > 79 | > 100 | > 62.8 | > 100 | > 70.5 | > 100 |
| Cc1ccc([N+](=O)[O-])c2c(NCCCN(C)C)ccnc12 | – | > 100 | – | > 100 | – | > 100 | – | > 100 | – | > 100 | – | > 100 | – | > 100 | – | > 100 | – | > 100 | – | > 100 |
| COc1ccc(NC2=C(Br)C(=O)C(C)=C(C)C2=O)cc1 | 1.76 | 3.37 | 2.67 | > 100 | 2.34 | 6.82 | 11.4 | 27.7 | 11 | 23.5 | 4.41 | 23.7 | 15 | 38.6 | 1.93 | 4.81 | 2.3 | 4.76 | 2.71 | 8.13 |
| CCN(Cc1c(F)cccc1F)c1ccc(CO)c(Cl)c1 | 0.0291 | 12.8 | 22.1 | 71.7 | 3.1 | 39.4 | 9.04 | 48.8 | 11 | 49.6 | 15 | 57.5 | 0.327 | 34.7 | 0.0516 | 0.288 | 19.1 | 52.6 | 1.14 | 24.2 |
| N#Cc1c(-c2ccccc2)nc2c(c(-c3ccccc3)nn2-c2ccccc2)c1-c1ccc(O)cc1 | 2.63 | 7.32 | 2.48 | 7.86 | 3.52 | 23.7 | 1.62 | 3.79 | 2.03 | 7.28 | 1.78 | 3.84 | 2.12 | 4.49 | 3.05 | 23.8 | 1.58 | 3.05 | 1.03 | 2.35 |
| Cc1noc(C)c1-c1ccc2[nH]c(=O)n3c2c1OC[C@@H]3c1ccccn1 | 2.84 | > 100 | 11.5 | > 100 | 0.144 | > 100 | 0.653 | > 100 | 0.0166 | 0.171 | 9.44 | > 100 | 0.482 | > 100 | 0.585 | > 100 | > 25.8 | > 100 | 1.26 | > 25.3 |
| CNC(=O)c1ccc(-c2cnc3ncc(Cc4ccc5ncccc5c4)n3n2)cc1F | > 100 | > 100 | > 100 | > 100 | > 100 | > 100 | > 100 | > 100 | 12.7 | 54.8 | > 100 | > 100 | 94.3 | > 100 | > 100 | > 100 | > 100 | > 100 | 13.4 | > 100 |
| Cc1c(C(=O)NN)nnn1-c1ccnc2c(C(F)(F)F)cccc12 | > 100 | > 100 | > 100 | > 100 | > 100 | > 100 | > 100 | > 100 | 37.9 | > 100 | > 100 | > 100 | > 100 | > 100 | > 100 | > 100 | > 100 | > 100 | > 100 | > 100 |
| CCN(CCO)CCNc1ccc(C)c2sc3cc(Cl)ccc3c(=O)c12 | 1.34 | 2.72 | 1.27 | 3.01 | 1.56 | 3.55 | 0.538 | 1.85 | 1.97 | 5.44 | 1.63 | 3.45 | 1.5 | 2.95 | 1.91 | 3.96 | 1.64 | 3.23 | 0.738 | 2.2 |
| CCCSc1cc(Cl)nc(N)n1 | > 100 | > 100 | 94.8 | > 100 | 6.48 | 50.5 | > 100 | > 100 | 90.1 | > 100 | > 100 | > 100 | > 100 | > 100 | > 100 | > 100 | > 100 | > 100 | > 100 | > 100 |
| CNC(=O)c1cc(Oc2ccc(NC(=O)Nc3ccc(Cl)c(OC(F)(F)F)c3)c(F)c2)ccn1 | 1.15 | 8.08 | 1.19 | 8.64 | 1 | 6.53 | 1.58 | 18 | 5.35 | 13.5 | 0.913 | 5.58 | 2.49 | 29.3 | 0.814 | 7.27 | 1.01 | 4.27 | 3.58 | 18.9 |
| O=C(N/N=C/c1ccc(Cl)cc1Cl)c1ccccc1Nc1cccc(C(F)(F)F)c1 | 5.62 | 29.9 | 4.22 | 40 | 79 | > 100 | 30.5 | > 100 | 2.55 | 9.71 | 5.93 | 32.8 | 5.36 | 18.3 | 2.2 | 6.9 | 28.8 | > 100 | 2.24 | 4.41 |
| COc1cc(-c2cn(C)c(=O)c(C)c2C)cc(OC)c1CN1CC[C@H](N2CCN(c3ccc(N[C@H]4CCC(=O)NC4=O)cc3F)CC2)C(F)(F)C1 | 13.1 | 27.7 | 21.2 | > 100 | 2.92 | > 100 | 10.7 | 24.1 | 5.2 | 21.9 | 14 | 28.6 | 14 | 39.2 | 14.3 | 49.3 | 15.6 | 30.9 | 11.1 | 25 |
| C[C@H]1CCC/C=C/[C@@H]2C[C@H](N)C[C@H]2[C@H](O)/C=C/C(=O)O1 | > 100 | > 100 | 77.3 | > 100 | 98.4 | > 100 | > 100 | > 100 | 39.9 | > 100 | > 100 | > 100 | > 100 | > 100 | > 100 | > 100 | > 100 | > 100 | > 100 | > 100 |
| CC1=C(C)C(=O)O[C@@H]([C@](C)(O)[C@]2(O)CC[C@@]3(O)[C@@H]4C[C@H]5O[C@]56CC=CC(=O)[C@]6(C)[C@H]4CC[C@]23C)C1 | 0.113 | 1.09 | 0.0786 | 35.2 | 0.0412 | 1.48 | 0.152 | 1.25 | 0.0322 | 1.2 | 0.254 | 2.93 | 0.292 | 3.39 | 0.111 | 1.63 | 0.233 | 1.92 | 0.169 | 0.62 |
| CCCCCCNc1nc(NCCCCCC)c2[nH]c(NCCCCCC)nc2n1 | 1.34 | 3.46 | 3.12 | 35.4 | 1.58 | 4.22 | 10.7 | > 51.7 | 4.31 | 20.7 | 8.77 | 23.3 | 18.5 | 33 | 2.42 | 17.3 | 12.1 | 24.6 | 4.23 | 17.5 |
| CS(=O)(=O)Nc1ccc(-c2ccc3c(NC(=O)C4CC4)n[nH]c3c2)cc1 | > 25 | > 25 | > 15.7 | > 25 | > 16.7 | > 25 | > 25 | > 25 | > 25 | > 25 | > 25 | > 25 | > 25 | > 25 | > 13.2 | > 25 | > 25 | > 25 | > 17.7 | > 25 |
| CN1CCN(Cc2ccc(NC(=O)c3ccc(C(C)(C)C)c(C#Cc4cnc5cccnn45)c3)cc2C(F)(F)F)CC1 | 1.67 | 3.08 | 1.77 | 4 | 2.62 | 6.5 | 1.21 | 2.66 | 1.59 | 3.09 | 1.85 | 3.89 | 1.76 | 3.35 | 2.02 | 5.41 | 1.93 | 3.73 | 1.8 | 3.4 |
| Oc1c(Br)cc(CN(Cc2cc(Br)c(O)c(Br)c2)C2CCCCC2)cc1Br | – | > 100 | – | > 100 | – | > 100 | – | > 100 | – | > 100 | – | > 100 | – | > 100 | – | > 100 | – | > 100 | – | > 100 |
| Cc1ncc(NC(=O)c2ccc(CN3CCN(C)CC3)c(C(F)(F)F)c2)cc1Nc1nccc(-c2cccnc2)n1 | 7.92 | 21.7 | 14.9 | 49.6 | 8.57 | 32.3 | 13.6 | 29.7 | 15.2 | 28.8 | 14.2 | 28.3 | 15.7 | 30.5 | 17.9 | 37.5 | 12.7 | 25.4 | 11.1 | 23.8 |
| NCCN1CCN(c2nccc(-c3ccc4ccccc4c3)n2)CC1 | 1.79 | 3.3 | 2.05 | 4.44 | 2.23 | 5.76 | 1.79 | 3.54 | 1.41 | 2.9 | 4.17 | 16.5 | 1.76 | 3.28 | 1.88 | 4.59 | 1.85 | 3.42 | 1.46 | 3.07 |
| CC(C)(C)c1nc2c(o1)C(=Nc1ccc(F)cc1)c1ccccc1C2=O | – | 38.2 | – | > 100 | – | > 44.9 | – | 33.8 | – | 20 | – | 8.98 | – | 32.4 | – | > 100 | – | 26 | – | 37.9 |
